Assay results published in PubChem BioAssay (NCI).
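1) Cells in 96-well plates. 2) Compound, 48 h, 5 concentrations. 3) Linear interpolation between surrounding doses. 4) Unreached endpoint = highest concentration. Abbreviation: GI50, concentration required for 50% inhibition of growth. TGI: total growth inhibition.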

Tests used:
Assay in all cases: NCI anticancer screen, dose series, 48 h
[1] = tested on: 786-0 renal
[2] = tested on: A498 renal
[3] = tested on: A549 NSCLC
[4] = tested on: ACHN renal
[5] = tested on: BT-549 breast
[6] = tested on: CAKI-1 renal
[7] = tested on: CCRF-CEM leukemia
[8] = tested on: COLO 205 colon
[9] = tested on: DU-145 prostate
[10] = tested on: EKVX NSCLC
[11] = tested on: HCC-2998 colon
[12] = tested on: HCT-116 colon
[13] = tested on: HL-60(TB) leukemia
[14] = tested on: HOP-62 NSCLC
[15] = tested on: HOP-92 NSCLC
[16] = tested on: HS 578T breast
[17] = tested on: HT29 colon
[18] = tested on: IGROV1 ovarian
[19] = tested on: K-562 leukemia
[20] = tested on: KM12 colon
[21] = tested on: LOX IMVI melanoma
[22] = tested on: M14 melanoma
[23] = tested on: MALME-3M melanoma
[24] = tested on: MCF7 breast
[25] = tested on: MDA-MB-231 breast
[26] = tested on: MDA-MB-435
[27] = tested on: MOLT-4 leukemia
[28] = tested on: NCI-H226 lung
[29] = tested on: NCI-H23 lung
[30] = tested on: NCI-H460 lung
[31] = tested on: NCI-H522 lung
[32] = tested on: NCI/ADR-RES ovarian
[33] = tested on: OVCAR-3 ovarian
[34] = tested on: OVCAR-4 ovarian
[35] = tested on: OVCAR-5 ovarian
[36] = tested on: OVCAR-8 ovarian
[37] = tested on: PC-3 prostate
[38] = tested on: RPMI-8226 leukemia
[39] = tested on: RXF 393 renal
[40] = tested on: SF-268 CNS
[41] = tested on: SF-295 CNS
[42] = tested on: SF-539 CNS
[43] = tested on: SK-MEL-2 melanoma
[44] = tested on: SK-MEL-28 melanoma
[45] = tested on: SK-MEL-5 melanoma
[46] = tested on: SK-OV-3 ovarian
[47] = tested on: SN12C renal
[48] = tested on: SNB-19 CNS
[49] = tested on: SNB-75 CNS
[50] = tested on: SR leukemia
[51] = tested on: SW-620 colon
[52] = tested on: T-47D breast
[53] = tested on: TK-10 renal
[54] = tested on: U251 CNS
[55] = tested on: UACC-257 melanoma
[56] = tested on: UACC-62 melanoma
[57] = tested on: UO-31 renal

Which GI50 [1] does the source give for COc1cccc(-c2nc(-c3ccc(NC(=O)C(C)C)cc3)[nH]c2-c2ccnc(Br)c2)c1 here?
Its GI50 is 1300 nM.

And the TGI [1]?
The TGI was > 100 µM.

What about the GI50 [2] of the same compound?
Its GI50 is 1840 nM.

What about the TGI [2] of the same compound?
Its TGI is 6.62 µM.

What about the GI50 [3] of the same compound?
The GI50 was 3.45 µM.

What about the TGI [3] of the same compound?
The TGI was > 100 µM.

And the GI50 [4]?
Its GI50 is 2740 nM.

What about the TGI [4] of the same compound?
The TGI was > 100 µM.

And the GI50 [5]?
Its GI50 is 2040 nM.

What about the TGI [5] of the same compound?
Its TGI is 80.1 µM.

And the GI50 [6]?
The GI50 was 2730 nM.

What about the TGI [6] of the same compound?
Its TGI is > 100 µM.

What about the GI50 [7] of the same compound?
The GI50 was 2990 nM.

And the TGI [7]?
Its TGI is > 100 µM.

What about the GI50 [8] of the same compound?
Its GI50 is 2810 nM.

And the TGI [8]?
Its TGI is 7.59 µM.

What about the GI50 [9] of the same compound?
Its GI50 is 3.86 µM.

What about the TGI [9] of the same compound?
The TGI was > 100 µM.

And the GI50 [10]?
The GI50 was 2430 nM.

And the TGI [10]?
Its TGI is 8.01 µM.

What about the GI50 [11] of the same compound?
The GI50 was 2030 nM.

And the TGI [11]?
Its TGI is 6.01 µM.

And the GI50 [12]?
Its GI50 is 2490 nM.

And the TGI [12]?
Its TGI is 7.8 µM.

What about the GI50 [13] of the same compound?
Its GI50 is 1560 nM.

What about the TGI [13] of the same compound?
Its TGI is 5.24 µM.

What about the GI50 [14] of the same compound?
The GI50 was 3.44 µM.

And the TGI [14]?
Its TGI is > 100 µM.

What about the GI50 [15] of the same compound?
The GI50 was 3.58 µM.

And the TGI [15]?
The TGI was 48.4 µM.

What about the GI50 [16] of the same compound?
The GI50 was 548 nM.

What about the TGI [16] of the same compound?
The TGI was 3.93 µM.

What about the GI50 [17] of the same compound?
Its GI50 is 3.07 µM.

What about the TGI [17] of the same compound?
Its TGI is > 100 µM.

What about the GI50 [18] of the same compound?
Its GI50 is 3.55 µM.

What about the TGI [18] of the same compound?
The TGI was > 100 µM.

What about the GI50 [19] of the same compound?
The GI50 was 3.07 µM.

And the TGI [19]?
Its TGI is > 100 µM.

What about the GI50 [20] of the same compound?
The GI50 was 2960 nM.

What about the TGI [20] of the same compound?
The TGI was > 100 µM.

What about the GI50 [21] of the same compound?
Its GI50 is 1610 nM.

What about the TGI [21] of the same compound?
The TGI was 3.38 µM.

And the GI50 [22]?
The GI50 was 3.3 µM.

What about the TGI [22] of the same compound?
Its TGI is > 100 µM.

And the GI50 [23]?
The GI50 was 2650 nM.

And the TGI [23]?
The TGI was 9.26 µM.

And the GI50 [24]?
Its GI50 is 1670 nM.

What about the TGI [24] of the same compound?
Its TGI is 5.2 µM.

What about the GI50 [25] of the same compound?
The GI50 was 4.09 µM.

And the TGI [25]?
Its TGI is > 100 µM.

What about the GI50 [26] of the same compound?
Its GI50 is 3.12 µM.

And the TGI [26]?
Its TGI is > 100 µM.

What about the GI50 [27] of the same compound?
Its GI50 is 2560 nM.

What about the TGI [27] of the same compound?
Its TGI is > 100 µM.

What about the GI50 [28] of the same compound?
Its GI50 is 2530 nM.

And the TGI [28]?
Its TGI is 21.4 µM.

What about the GI50 [29] of the same compound?
The GI50 was 2880 nM.

And the GI50 [30]?
Its GI50 is 3.2 µM.

And the TGI [30]?
The TGI was 21.3 µM.

And the GI50 [31]?
Its GI50 is 2800 nM.

What about the TGI [31] of the same compound?
Its TGI is > 100 µM.

And the GI50 [32]?
Its GI50 is 3.03 µM.

And the TGI [32]?
The TGI was > 100 µM.

What about the GI50 [33] of the same compound?
The GI50 was 3.38 µM.

And the TGI [33]?
Its TGI is > 100 µM.

And the GI50 [34]?
The GI50 was 3.54 µM.

And the TGI [34]?
The TGI was > 100 µM.

What about the GI50 [35] of the same compound?
Its GI50 is 4.69 µM.

And the TGI [35]?
Its TGI is > 100 µM.

And the GI50 [36]?
Its GI50 is 3.61 µM.

What about the TGI [36] of the same compound?
Its TGI is > 100 µM.

What about the GI50 [37] of the same compound?
The GI50 was 3.02 µM.

And the TGI [37]?
Its TGI is > 100 µM.

What about the GI50 [38] of the same compound?
Its GI50 is 511 nM.

And the TGI [38]?
Its TGI is 2850 nM.

And the GI50 [39]?
The GI50 was 354 nM.

What about the TGI [39] of the same compound?
The TGI was 1460 nM.

And the GI50 [40]?
The GI50 was 4.07 µM.

What about the TGI [40] of the same compound?
The TGI was > 100 µM.

What about the GI50 [41] of the same compound?
Its GI50 is 273 nM.

What about the TGI [41] of the same compound?
Its TGI is 759 nM.

What about the GI50 [42] of the same compound?
Its GI50 is 1780 nM.

What about the TGI [42] of the same compound?
Its TGI is 6.56 µM.

What about the GI50 [43] of the same compound?
The GI50 was 2300 nM.

What about the TGI [43] of the same compound?
Its TGI is 6.34 µM.

And the GI50 [44]?
Its GI50 is 2780 nM.

And the TGI [44]?
The TGI was > 100 µM.

And the GI50 [45]?
The GI50 was 1800 nM.

And the TGI [45]?
The TGI was 3.32 µM.

And the GI50 [46]?
The GI50 was 3.66 µM.

And the TGI [46]?
The TGI was > 100 µM.

What about the GI50 [47] of the same compound?
Its GI50 is 3.31 µM.

And the TGI [47]?
Its TGI is > 100 µM.

What about the GI50 [48] of the same compound?
Its GI50 is 3.76 µM.

What about the TGI [48] of the same compound?
The TGI was > 100 µM.

And the GI50 [49]?
The GI50 was 488 nM.

What about the TGI [49] of the same compound?
The TGI was > 100 µM.

What about the GI50 [50] of the same compound?
The GI50 was 2410 nM.

And the TGI [50]?
The TGI was > 100 µM.

What about the GI50 [51] of the same compound?
The GI50 was 3.52 µM.

And the TGI [51]?
Its TGI is > 100 µM.

And the GI50 [52]?
The GI50 was 2560 nM.

What about the TGI [52] of the same compound?
The TGI was 11.5 µM.

And the GI50 [53]?
Its GI50 is 4.35 µM.

And the TGI [53]?
Its TGI is > 100 µM.

And the GI50 [54]?
Its GI50 is 2080 nM.

And the TGI [54]?
The TGI was > 100 µM.

What about the GI50 [55] of the same compound?
The GI50 was 4.02 µM.

And the TGI [55]?
The TGI was > 100 µM.

And the GI50 [56]?
The GI50 was 2570 nM.

And the TGI [56]?
The TGI was 7.99 µM.

What about the GI50 [57] of the same compound?
Its GI50 is 3.2 µM.

And the TGI [57]?
Its TGI is > 100 µM.
